Data on 39 compounds can be found in the Deep4Chem optical property database.

This series in a line: solvent given as SMILES.

As to `CN1C(=CC2=C([S-])C(=Cc3sc4ccccc4[n+]3C)C2=O)C(C)(C)c2ccccc21`, the absorption maximum (in ClC(Cl)Cl) came to 661 nm.
In the case of `CCC1=C(C)C2=C(c3c4ccccc4c(C)c4ccccc34)c3c(C)c(CC)c(C)n3[B-](F)(F)[N+]2=C1C`, the absorption maximum was 527 nm (in CC#N); 529 nm (in CCCCCC); 528 nm (in CCO); 530 nm (in CN(C)C=O); 532 nm (in Cc1ccccc1); 531 nm (in ClCCl).
For `c1ccc(-n2c3ccccc3c3cc([Si](c4ccccc4)(c4ccccc4)c4ccc5c(c4)c4ccccc4n5-c4ccccc4)ccc32)cc1`, the absorption maximum (in ClCCl) came out at 342 nm.
For the setting “in CCO”, `CCOC(=O)c1cc(C(=O)OCC)c2c(C)ccc(OC(=O)OC(C)(C)C)c2n1` showed an absorption maximum of 312 nm.
In the case of `N#Cc1ccc(C2=CC3=c4cc(-c5ccc(C#N)cc5)c5nc(C(F)(F)C(F)(F)C(F)(F)F)nc6c(-c7ccc(C#N)cc7)cc(c4c65)C4=CC(c5ccc(C#N)cc5)=C5N=C(C(F)(F)C(F)(F)C(F)(F)F)N=C2C5C43)cc1` (stereo unspecified), the absorption maximum (in C1CCOC1) is given as 492 nm.
Take `CN(C)c1ccc(/C=C/c2cc[n+](CCCCC[n+]3ccc(/C=C/c4ccc(N(C)C)cc4)cc3)cc2)cc1`: the absorption maximum is 478 nm (in CC1COC(=O)O1); 478 nm (in CC#N); 476 nm (in CC(C)=O); 486 nm (in CC(C)O); 492 nm (in CCO); 478 nm (in CN(C)C=O). In addition, the absorption maximum (in CO) is 484 nm; the absorption maximum (in CS(C)=O) is 479 nm; the absorption maximum (in ClC(Cl)Cl) was found to be 494 nm; the absorption maximum (in O) came to 457 nm; the absorption maximum (in c1ccncc1) stood at 490 nm.
`CCOC(=O)c1nn(-c2ccc(OC)cc2)nc1N1CCCC1` gave an absorption maximum (in CC#N) of 336 nm.
For `CCOC(=O)c1c(-c2cc3c(ccc4ccccc43)oc2=O)nn(-c2cccc(C)c2)c1C(=O)OCC`, for the setting “in ClCCl”, the absorption maximum was determined as 361 nm.
Compound `FC(F)(F)c1ccc2oc3nc4oc5ccc(N(c6ccccc6)c6ccccc6)cc5c4cc3c2c1` yielded an absorption maximum (in ClC(Cl)Cl) of 345 nm.
With `Cc1ccc(-n2c(C)ccc2C)cc1`, the absorption maximum was found to be 234 nm (in CC#N) and 238 nm (in CCCCCC).
`CC1=CC(C)(C)N(C)c2cc3c(cc21)C(c1ccc(Br)cc1)=c1cc2c(cc1O3)=[N+](C)C(C)(C)C=C2C`: the absorption maximum (in CCO) is 594 nm.
As for `CCCCCCOc1ccc2c(c1)C1=[N+]3C2=Cc2c4ccc(OCCCCCC)cc4c4n2[B-]3(Oc2ccccc21)Oc1ccccc1-4` (stereo unspecified), the absorption maximum (in C1CCOC1) was determined as 748 nm.
For `Cc1cc(C)c(C2=C3C=CC(c4ccc5c(ccc6ccccc65)c4)=[N+]3[B-](F)(F)n3c2ccc3-c2ccc3c(ccc4ccccc43)c2)c(C)c1`, where the note is “in ClC(Cl)Cl”, the absorption maximum was 579 nm.
For `CC(C)(C)c1ccc(C(C)(C)C)c(N2C(=O)c3cccc4c(-c5ccc(-c6ccc(N(c7ccccc7)c7ccccc7)cc6)s5)ccc(c34)C2=O)c1`, the absorption maximum is, setting by setting: (in CO) 447 nm; (in CS(C)=O) 445 nm; (in Cc1ccccc1) 440 nm.
As for `Cc1ccc(/C2=c3\cc/c(o3)=C(\c3ccc(C)cc3)c3ccc([nH]3)-c3ccc4n3[B-](F)(F)[N+]3=C(C=CC3=C4c3cccs3)c3ccc2[nH]3)cc1`, where the note is “in ClC(Cl)Cl”, the absorption maximum is on record as 709 nm.
For the compound `CN(C)c1ccc(C2=Cc3cccc[n+]3[B-](F)(F)O2)cc1`, the absorption maximum came out at 420 nm (in C1CCOC1); 417 nm (in C1COCCO1); 413 nm (in CC1CCCCC1); 417 nm (in CC#N); 416 nm (in CCOC(C)=O); 413 nm (in CCOCC). Further, the absorption maximum by setting is: (in CN(C)C=O) 423 nm; (in CO) 418 nm; (in COC(C)=O) 417 nm; (in ClC(Cl)Cl) 426 nm.
For the setting “in CCO”, `O=Cc1ccc(-c2ccc(-c3nc4ccccc4s3)c(O)c2)s1` returned an absorption maximum of 376 nm.
On to `CC(C)(C(=O)c1ccc(N2c3ccccc3C(C)(C)c3ccccc32)cc1)C(=O)c1ccc(N2c3ccccc3C(C)(C)c3ccccc32)cc1`, for which, under “in Cc1ccccc1”, the absorption maximum is listed as 390 nm.
`F[B-]1(F)N2C(=Nc3cccc4cccc2c34)c2cccc[n+]21`: the absorption maximum by setting is: (in CC#N) 350 nm; (in CO) 348 nm; (in CS(C)=O) 351 nm; (in Cc1ccccc1) 354 nm.
For the compound `COc1cc(OC)cc(-c2ccc(-c3ccc(C#N)s3)s2)c1`, the absorption maximum by setting is: (in C1CCCCC1) 360 nm; (in C1COCCO1) 366 nm; (in CC#N) 364 nm; (in CC(C)O) 365 nm; (in CCCCO) 367 nm; (in CCO) 365 nm. The same compound registered an absorption maximum (in CCOC(C)=O) of 365 nm; an absorption maximum (in CN(C)C=O) of 370 nm; an absorption maximum (in CO) of 364 nm; an absorption maximum (in CS(C)=O) of 372 nm; an absorption maximum (in Cc1ccccc1) of 366 nm; an absorption maximum (in ClC(Cl)Cl) of 367 nm. The absorption maximum runs as follows: (in ClCCl) 366 nm; (in O) 337 nm.
In turn, `COc1ccc(C2=C3C(C)=CC(C=Cc4ccc(C(=O)OC5C[C@H]6CCC5(C)C6(C)C)cc4)=[N+]3[B-](F)(F)n3c(/C=C/c4ccc(C(=O)OC5CC6CCC5(C)C6(C)C)cc4)cc(C)c32)cc1` (stereo partly specified) had an absorption maximum (in Cc1ccccc1) of 640 nm.
Regarding `CN(C)c1ccc(/C=C/C=C/c2nc3ccccc3o2)cc1`, the absorption maximum was found to be 411 nm (in C1COCCO1); 410 nm (in CC#N); 409 nm (in CC(C)=O); 401 nm (in CCCCCC); 417 nm (in CCCCO); 417 nm (in CCCO). In addition, the absorption maximum is recorded as 417 nm (in CCO); 419 nm (in CN(C)C=O); 417 nm (in CO); 413 nm (in Cc1ccccc1); 406 nm (in ClC(Cl)(Cl)Cl); 414 nm (in ClC(Cl)Cl). The absorption maximum is, setting by setting: (in ClCCl) 415 nm; (in OCC(O)CO) 424 nm; (in OCCO) 424 nm; (in c1ccccc1) 411 nm.
On to `Cc1ccc2c(c1)c1cc(C)ccc1n2-c1cccc(-n2c3ccc(C)cc3c3cc(C)ccc32)c1C#N`, for which the absorption maximum (in Cc1ccccc1) was 368 nm.
For the setting “in ClCCl”, `c1ccc(Cc2c3ccc(=[N+]4CCCCC4)cc-3oc3cc(N4CCCCC4)ccc23)cc1` had an absorption maximum of 566 nm.
On the same count and under the same terms, next, `COc1ccc(C#Cc2nc(C#Cc3ccc(OC)cc3)c(C#Cc3ccc(OC)cc3)c(C#Cc3ccc(OC)cc3)c2C#Cc2ccc(OC)cc2)cc1`: 421 nm.
Still for that read-out and setting: next, `Fc1ccc(N(c2ccccc2)c2ccc3ccc4c(N(c5ccccc5)c5ccc(F)cc5)ccc5ccc2c3c54)cc1`: 423 nm.
Under “in CC#N”, `COc1ccc(-c2nc(-c3ccc(-c4nc(-c5ccc(OC)cc5)c(-c5ccc(OC)cc5)[nH]4)s3)[nH]c2-c2ccc(OC)cc2)cc1` showed an absorption maximum of 365 nm.
`CCCCCCCCOc1ccc(-c2c3c4n(c(-c5ccc(OCCCCCCCC)cc5)c3c3n2[B-](F)(F)[n+]2c(sc5ccccc52)N=3)[B-](F)(F)[n+]2c(sc3ccccc32)N=4)cc1`: the absorption maximum (in ClC(Cl)Cl) turned out to be 655 nm.
In turn, `CC1=[N+]2C(=C(Oc3ccccc3)c3ccc(C)n3[B-]2(F)F)C=C1c1cc2n(c1)[B-](F)(F)[N+]1=CC=CC1=C2c1c(C)cc(C)cc1C` registered an absorption maximum (in C1CCCCC1) of 582 nm and an absorption maximum (in CCOC(C)=O) of 577 nm.
Turning to `CCN(CC)c1ccc2c(-c3ccccc3C(=O)O)c3c([o+]c2c1)/C(=C/Nc1ccccc1)CCC3`, the absorption maximum reads like this: (in CCO) 595 nm; (in ClC(Cl)Cl) 608 nm; (in ClCCl) 607 nm.
Take `COc1ccc(-c2sc3c(-c4ccc(OC)cc4)c4n(c3c2-c2ccc(OC)cc2)[B-](F)(F)[N+]2=Cc3c(-c5ccc(OC)cc5)c5sc(-c6ccc(OC)cc6)c(-c6ccc(OC)cc6)c5n3[B-](F)(F)[N+]2=C4)cc1`: the absorption maximum came to 587 nm (in CC#N); 595 nm (in CCCCCC); 593 nm (in CN(C)C=O); 610 nm (in Cc1ccccc1); 600 nm (in ClCCl).
`CI` gave an absorption maximum (in CCCCCC) of 259 nm.
Consider `CCCCCCCCCCCCn1cccc1/C=C/c1ccc(OCCCC)c2c(/C=C/c3cccn3CCCCCCCCCCCC)ccc(OCCCC)c12`, for which the absorption maximum (in Cc1ccccc1) is listed as 375 nm.
In turn, `c1ccc(-c2nc3sc4ccccc4c3s2)cc1` gave an absorption maximum (in CS(C)=O) of 348 nm.
The compound `c1ccc2[nH]c(-c3ccc(-c4ccc(-c5ccc(-c6nc7ccccc7[nH]6)cc5)cc4)cc3)nc2c1` returned an absorption maximum (in CN(C)C=O) of 349 nm.
The compound `C(S/C=C/c1ccc(-c2ccc(/C=C/SC=C3CCCCCC3)cc2)cc1)=C1CCCCCC1` showed an absorption maximum (in ClCCl) of 353 nm.
As for `F[B-]1(F)n2c(c3cccc4cccc2c43)=Nc2cccc(Cl)[n+]21`, the absorption maximum came to 476 nm (in C1CCOC1); 470 nm (in CC#N); 481 nm (in CCCCCC); 481 nm (in Cc1ccccc1); 447 nm (in ClCCl).
As for `COc1cc2c3c(c4cc(OC)c(OC)c(OC)c4c2c(OC)c1OC)=[N+]1C(=C(c2c(C)cc(C)cc2C)c2cc4c5cc(OC)c(OC)c(OC)c5c5c(OC)c(OC)c(OC)cc5c4n2[B-]1(F)F)C=3`, the absorption maximum is, setting by setting: (in C1CCCCC1) 733 nm; (in C1CCOC1) 730 nm; (in CC#N) 718 nm; (in Cc1ccccc1) 740 nm; (in ClCCl) 727 nm.
`N#Cc1ccc(N/N=C/c2ccc3ccccc3c2O)cc1`: the absorption maximum (in CC#N) was 380 nm; the absorption maximum (in CCCCCC) is reported as 384 nm; the absorption maximum (in CO) is 380 nm; the absorption maximum (in CS(C)=O) came to 390 nm; the absorption maximum (in ClC(Cl)Cl) stood at 384 nm.
